Patent US20240043618A1, “ANTIMICROBIAL COMPOSITIONS” (priority 2021, published 2024)

Legend:
SARS-CoV-2 = assay type: cell-based; conditions: 70% concentration, 30 min contact, 22 ± 2° C.
B. subtilis (gram+) = conditions: reported value of antibiotic; cited from earlier work
P. aeruginosa (gram−) = conditions: reported value of antibiotic; cited from earlier work
S. aureus (gram+) = conditions: reported value of antibiotic; cited from earlier work
[1] = tested on: C. albicans fungal strain; conditions: reported value of antibiotic; cited from earlier work
E. coli (gram−) = conditions: reported value of antibiotic; cited from earlier work

Molecule | Virus Titer (SARS-CoV-2) | LRV (log reduction value) (SARS-CoV-2; vs virus control 4.3) | Toxicity (highest dilution of the endpoint titer where full (80-100%) cytotoxicity was observed) (Vero E6 cells) | MIC (B. subtilis (gram+)) | MIC (P. aeruginosa (gram−)) | MIC (S. aureus (gram+)) | MIC [1] | MIC (E. coli (gram−))
CCO [Ethanol] | <0.7 log10 CCID50 of virus per 0.1 mL | >3.6 | None | – | – | – | – | –
gentamycin | – | – | – | 4 µg/mL | 4 µg/mL | 10 µg/mL | 2.5 µg/mL | 8 µg/mL
